Experimental data reported in patent US20260347347A1, “2-AZA-AND 2-OXABICYCLO[2.1.1]HEXANE DERIVATIVES AS FACTOR XIIA ENZYME INHIBITORS” (KALVISTA PHARMACEUTICALS LIMITED, priority 2022, published 2026).

Target: T1, Human Factor XIIa (Homo sapiens, UniProt P00748)
T1 construct: purchased Enzyme Research Laboratories
T1 sequence (P00748 373-615 limits assumed): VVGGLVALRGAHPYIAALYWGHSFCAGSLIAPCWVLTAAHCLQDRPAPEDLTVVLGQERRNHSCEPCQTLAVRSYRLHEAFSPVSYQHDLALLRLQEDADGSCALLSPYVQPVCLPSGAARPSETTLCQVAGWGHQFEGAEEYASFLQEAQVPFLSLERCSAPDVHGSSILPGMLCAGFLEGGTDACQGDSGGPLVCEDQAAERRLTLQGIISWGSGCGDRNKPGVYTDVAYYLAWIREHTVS
T1 sequence (P00748 20-372 partner limits assumed): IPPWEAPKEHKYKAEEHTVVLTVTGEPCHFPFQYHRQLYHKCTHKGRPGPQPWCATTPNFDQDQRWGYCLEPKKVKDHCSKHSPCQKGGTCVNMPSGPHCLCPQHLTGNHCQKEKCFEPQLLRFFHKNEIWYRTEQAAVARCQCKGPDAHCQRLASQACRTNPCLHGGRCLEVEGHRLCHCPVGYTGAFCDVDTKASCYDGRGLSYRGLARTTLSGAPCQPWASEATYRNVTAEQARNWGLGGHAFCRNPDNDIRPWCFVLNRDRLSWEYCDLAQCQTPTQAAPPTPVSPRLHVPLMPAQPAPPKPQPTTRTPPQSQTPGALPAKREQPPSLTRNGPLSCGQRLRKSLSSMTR
Test: Determination of FXIIa inhibition (in vitro IC50 assay, fluorogenic substrate H-DPro-Phe-Arg-AFC)
Assay type: biochemical
Details: human Factor XIIa; fluorogenic substrate H-DPro-Phe-Arg-AFC at Km concentration; 5 min, 25 °C; class symbols; read-out: Human FXIIa IC50
Procedure: In vitro inhibition of Factor XIIa was determined using an IC50 assay based on standard literature methods (see e.g Baeriswyl et al., ACS Chem. Biol., 2015, 10 (8) 1861; Bouckaert et al., European Journal of Medicinal Chemistry 110 (2016) 181). Human Factor XIIa (Enzyme Research Laboratories) was incubated at 25 °C with the fluorogenic substrate H-DPro-Phe-Arg-AFC (Peptide Protein Science) and various concentrations of the test compound. Protease activity was measured by monitoring the accumulation of liberated fluorescence from the substrate over 5 min at 25 °C. The linear rate of fluorescence increase per minute was expressed as percentage (%) activity. The Km for the cleavage of the substrate by FXIIa was determined by standard transformation of the Michaelis-Menten equation. The compound inhibitor assays were performed at substrate Km concentration. IC50 values were calculated as the concentration of inhibitor giving 50% inhibition (IC50) of the uninhibited enzyme activity (100%).

Compound	IC50 [µM]
Cc1cc(OCC23CN(C(=O)C(C)c4ccc5c(c4)CCO5)C(CNc4cccc5c(N)nccc45)(C2)C3)cc(=O)n1C (stereo not drawn) [Example 28, 4-((1-(((1-aminoisoquinolin-5-yl)amino)methyl)-2-(2-(2,3-dihydrobenzofuran-5-yl)propanoyl)-2-azabicyclo[2.1.1]hexan-4-yl)methoxy)-1,6-dimethylpyridin-2(1H)-one]	0.01 to 0.1
CC(=O)NC(C)C(=O)N1CC2(COc3cc(C)n(C)c(=O)c3)CC1(CNc1cccc3c(N)nccc13)C2 (stereo not drawn) [Example 29, N-(1-(1-(((1-Aminoisoquinolin-5-yl)amino)methyl)-4-(((1,6-dimethyl-2-oxo-1,2-dihydropyridin-4-yl)oxy)methyl)-2-azabicyclo[2.1.1]hexan-2-yl)-1-oxopropan-2-yl)acetamide]	0.01 to 0.1
Cn1ccc(OCC23CN(C(=O)N4CCOCC4)C(CNc4cccc5c(N)nccc45)(C2)C3)cc1=O [Example 31, 4-((1-(((1-aminoisoquinolin-5-yl)amino)methyl)-2-(morpholine-4-carbonyl)-2-azabicyclo[2.1.1]hexan-4-yl)methoxy)-1-methylpyridin-2(1H)-one]	0.01 to 0.1
C[C@H](NC(=O)N1CC2(COc3ccn(C)c(=O)c3)CC1(CNc1cccc3c(N)nccc13)C2)c1ccccc1 [Example 32, (S)-1-(((1-aminoisoquinolin-5-yl)amino)methyl)-4-(((1-methyl-2-oxo-1,2-dihydropyridin-4-yl)oxy)methyl)-N-(1-phenylethyl)-2-azabicyclo[2.1.1]hexane-2-carboxamide]	0.01 to 0.1
C[C@@H](NC(=O)N1CC2(COc3ccn(C)c(=O)c3)CC1(CNc1cccc3c(N)nccc13)C2)c1ccccc1 [Example 33, (R)-1-(((1-aminoisoquinolin-5-yl)amino)methyl)-4-(((1-methyl-2-oxo-1,2-dihydropyridin-4-yl)oxy)methyl)-N-(1-phenylethyl)-2-azabicyclo[2.1.1]hexane-2-carboxamide]	0.01 to 0.1
Cn1ccc(OCC23CN(C(=O)N4CCc5ccccc54)C(CNc4cccc5c(N)nccc45)(C2)C3)cc1=O [Example 34, 4-((1-(((1-aminoisoquinolin-5-yl)amino)methyl)-2-(indoline-1-carbonyl)-2-azabicyclo[2.1.1]hexan-4-yl)methoxy)-1-methylpyridin-2(1H)-one]	0.01 to 0.1
Cn1ccc(OCC23CN(C(=O)N4CCOc5ccccc54)C(CNc4cccc5c(N)nccc45)(C2)C3)cc1=O [Example 35, 4-((1-(((1-aminoisoquinolin-5-yl)amino)methyl)-2-(3,4-dihydro-2H-benzo[b][1,4]oxazine-4-carbonyl)-2-azabicyclo[2.1.1]hexan-4-yl)methoxy)-1-methylpyridin-2(1H)-one]	0.01 to 0.1
Cn1ccc(OCC23CN(C(=O)N4CCCc5ccccc54)C(CNc4cccc5c(N)nccc45)(C2)C3)cc1=O [Example 36, 4-((1-(((1-aminoisoquinolin-5-yl)amino)methyl)-2-(1,2,3,4-tetrahydroquinoline-1-carbonyl)-2-azabicyclo[2.1.1]hexan-4-yl)methoxy)-1-methylpyridin-2(1H)-one]	0.1 to 0.3
Cn1ccc(OCC23CN(C(=O)N4CCc5ccccc5C4)C(CNc4cccc5c(N)nccc45)(C2)C3)cc1=O [Example 37, 4-((1-(((1-aminoisoquinolin-5-yl)amino)methyl)-2-(1,2,3,4-tetrahydroisoquinoline-2-carbonyl)-2-azabicyclo[2.1.1]hexan-4-yl)methoxy)-1-methylpyridin-2(1H)-one]	0.1 to 0.3
COc1ccc2c(c1)CCCN2C(=O)N1CC2(COc3ccn(C)c(=O)c3)CC1(CNc1cccc3c(N)nccc13)C2 [Example 39, 4-((1-(((1-aminoisoquinolin-5-yl)amino)methyl)-2-(6-methoxy-1,2,3,4-tetrahydroquinoline-1-carbonyl)-2-azabicyclo[2.1.1]hexan-4-yl)methoxy)-1-methylpyridin-2(1H)-one]	0.1 to 0.3
Cc1cc(OCC23CN(C(=O)N(C)[C@@H]4CCOC4)C(CNc4cccc5c(N)nccc45)(C2)C3)cc(=O)n1C [Example 40, (R)-1-(((1-aminoisoquinolin-5-yl)amino)methyl)-4-(((1,6-dimethyl-2-oxo-1,2-dihydropyridin-4-yl)oxy)methyl)-N-methyl-N-(tetrahydrofuran-3-yl)-2-azabicyclo [2.1.1]hexane-2-carboxamide]	0.01 to 0.1
Cc1cc(OCC23CN(C(=O)N(C)[C@H]4CCOC4)C(CNc4cccc5c(N)nccc45)(C2)C3)cc(=O)n1C [Example 41, (S)-1-(((1-aminoisoquinolin-5-yl)amino)methyl)-4-(((1,6-dimethyl-2-oxo-1,2-dihydropyridin-4-yl)oxy)methyl)-N-methyl-N-(tetrahydrofuran-3-yl)-2-azabicyclo[2.1.1]hexane-2-carboxamide]	0.01 to 0.1
C[C@@H](c1ccccc1)N(C)C(=O)N1CC2(COc3ccn(C)c(=O)c3)CC1(CNc1cccc3c(N)nccc13)C2 [Example 42, (S)-1-(((1-aminoisoquinolin-5-yl)amino)methyl)-N-methyl-4-(((1-methyl-2-oxo-1,2-dihydropyridin-4-yl)oxy)methyl)-N-(1-phenylethyl)-2-azabicyclo[2.1.1]hexane-2-carboxamide]	0.01 to 0.1

Next, values leading:

IC50 [µM]	Compound
0.01 to 0.1	Cc1cc(OCC23CN(C(=O)CC45CCC(CC4)C5)C(CNc4cccc5c(N)nccc45)(C2)C3)cc(=O)n1C [Example 22, 4-((1-(((1-aminoisoquinolin-5-yl)amino)methyl)-2-(2-(bicyclo[2.2.1]heptan-1-yl)acetyl)-2-azabicyclo[2.1.1]hexan-4-yl)methoxy)-1,6-dimethylpyridin-2(1H)-one]
0.01 to 0.1	Cc1cc(OCC23CN(C(=O)CC4CCC(F)(F)CC4)C(CNc4cccc5c(N)nccc45)(C2)C3)cc(=O)n1C [Example 23, 4-((1-(((1-aminoisoquinolin-5-yl)amino)methyl)-2-(2-(4,4-difluorocyclohexyl)acetyl)-2-azabicyclo[2.1.1]hexan-4-yl)methoxy)-1,6-dimethylpyridin-2(1H)-one]
0.01 to 0.1	Cc1cc(OCC23CN(C(=O)CC45CC(C4)C5)C(CNc4cccc5c(N)nccc45)(C2)C3)cc(=O)n1C [Example 26, 4-((1-(((1-aminoisoquinolin-5-yl)amino)methyl)-2-(2-(bicyclo[1.1.1]pentan-1-yl)acetyl)-2-azabicyclo[2.1.1]hexan-4-yl)methoxy)-1,6-dimethylpyridin-2(1H)-one]
0.01 to 0.1	CC(C(=O)N1CC2(COc3ccn(C)c(=O)c3)CC1(CNc1cccc3c(N)nccc13)C2)c1ccc2c(c1)CCO2 (stereo not drawn) [Example 27, 4-((1-(((1-aminoisoquinolin-5-yl)amino)methyl)-2-(2-(2,3-dihydrobenzofuran-5-yl)propanoyl)-2-azabicyclo[2.1.1]hexan-4-yl)methoxy)-1-methylpyridin-2(1H)-one]
0.001 to 0.01	Cn1ccc(OCC23CN(C(=O)Nc4ccc5c(c4)CCO5)C(CNc4cccc5c(N)nccc45)(C2)C3)cc1=O [Example 38, 1-(((1-aminoisoquinolin-5-yl)amino)methyl)-N-(2,3-dihydrobenzofuran-5-yl)-4-(((1-methyl-2-oxo-1,2-dihydropyridin-4-yl)oxy)methyl)-2-azabicyclo[2.1.1]hexane-2-carboxamide]
0.001 to 0.01	C[C@H](c1ccccc1)N(C)C(=O)N1CC2(COc3ccn(C)c(=O)c3)CC1(CNc1cccc3c(N)nccc13)C2 [Example 43, (R)-1-(((1-aminoisoquinolin-5-yl)amino)methyl)-N-methyl-4-(((1-methyl-2-oxo-1,2-dihydropyridin-4-yl)oxy)methyl)-N-(1-phenylethyl)-2-azabicyclo[2.1.1]hexane-2-carboxamide]
0.001 to 0.01	Cn1ccc(OCC23CN(C(=O)N4CC[C@@H](c5ccccc5)C4)C(CNc4cccc5c(N)nccc45)(C2)C3)cc1=O [Example 44, (S)-4-((1-(((1-aminoisoquinolin-5-yl)amino)methyl)-2-(3-phenylpyrrolidine-1-carbonyl)-2-azabicyclo[2.1.1]hexan-4-yl)methoxy)-1-methylpyridin-2(1H)-one]
0.001 to 0.01	Cc1cc(OCC23CN(C(=O)N4CC[C@@H](c5ccccc5)C4)C(CNc4cccc5c(N)nccc45)(C2)C3)cc(=O)n1C [Example 45, (S)-4-((1-(((1-aminoisoquinolin-5-yl)amino)methyl)-2-(3-phenylpyrrolidine-1-carbonyl)-2-azabicyclo[2.1.1]hexan-4-yl)methoxy)-1,6-dimethylpyridin-2(1H)-one]
